Data on one molecule can be found in PMC3648489, “The sodium glucose cotransporter 2 inhibitor empagliflozin does not prolong QT interval in a thorough QT (TQT) study” (Cardiovascular Diabetology, 2013).

The test system of data set [1] is healthy volunteers. Description: Safety and tolerability (adverse events) in the TQT study. It counts as in vivo, human. As to conditions: moxifloxacin; one participant; not considered related to study medication. Here is the method:
(§1) Secondary endpoints were the changes from period baseline in QTcN at any time point between 0.5–24 hours after dosing. In addition, the MCfB 2–4 hours after dosing (for assessment of the moxifloxacin effect), and the MCfB of all ECGs taken 0.5–24 hours after dosing were evaluated. Safety and tolerability were evaluated based on physical examination, vital signs, ECG, clinical laboratory tests, adverse events (AEs) and the physician’s assessment of global tolerability.
Categorical endpoints such as AEs, cardiologic assessments and occurrence of ECG intervals beyond thresholds of regulatory concern (e.g. QTc >450 ms) were analysed based on incidence rates adjusted for the number of periods in which the treatment was given. Additionally, the analysis of such events in periods with any of the two doses of empagliflozin compared with the two placebo periods provides a direct comparison of incidence rates. All analyses were performed on the “full analysis set”, which comprised all recorded data of all subjects who received at least one dose of study treatment and had at least one ECG endpoint assessment at baseline and post treatment. No imputation for missing data was planned or performed.

The test system of data set [2] is healthy volunteers. The data set is described as follows: Thorough QT study: triplicate 12-lead ECG, QTcN and heart rate change from baseline. It counts as in vivo, human. The settings on record: for Difference from placebo: ΔΔQTcN (placebo-corrected MCfB in QTcN), adjusted mean: 2-4 hours post-dose, assay sensitivity. The procedure:
This thorough QT study (TQT) was a randomised, double-blind (moxifloxacin open), placebo-controlled crossover trial which included the following treatments: 25 mg and 200 mg empagliflozin (Boehringer Ingelheim Pharma GmbH & Co. KG); 400 mg open-label moxifloxacin (Avalox®; Bayer Vital, Leverkusen, Germany); and two placebo periods, with a washout of at least seven days between treatments. Trial medication was administered in the morning after an overnight fast.
ECG recordings were made at screening and at the end of the study as part of the safety evaluation. For the QTc evaluation, ECG recordings were made on study drug administration days (as ECG profiles) at 60, 50 and 40 minutes pre-dose (to derive the period-specific baseline), and at 0.5, 1, 1.5, 2, 2.5, 3, 4, 6, 8, 12 and 24 hours post-dose (last three time points omitted for moxifloxacin treatment). At each time point, triplicate standard 12-lead ECGs (I, II, III, aVR, aVL, aVF, V1–V6) of 10 seconds’ duration each were recorded after at least 5 minutes’ rest in the supine position using CardioSoft ECG recording machines (GE Healthcare, Freiburg, Germany). ECGs were sent to a central laboratory for evaluation of PR, QRS, RR and QT intervals. The semi-automatic approach used for determination of the fiducial points provided an automatic pre-assessment using a computer algorithm, which was reviewed by a specialist and adjusted if necessary. This review was performed blinded with regard to treatment and time point.
Data from four cardiac cycles per ECG were averaged. A population heart rate-corrected QT interval (QTcN) was derived by determining the exponent δ of the relationship: QT ~ (1000 / RR)^δ (where δ is the regression effect of the covariate) using a linear mixed model on log-transformed RR and QT data (measured in ms). Data from triplicate ECGs were then averaged for each time point.
The primary endpoint was the mean change from baseline (MCfB) in QTcN which was the mean QTcN derived from ECGs obtained 1–4 hours post-dose minus mean QTcN from baseline ECGs obtained pre-dose at each visit. Plasma concentrations of both empagliflozin and moxifloxacin were expected to reach peak levels within this three-hour window, ensuring the most relevant levels of drug exposure.
as §1
Briefly, the primary analysis compared changes in the primary endpoint (QTcN MCfB over 1–4 hours) using an analysis of covariance (ANCOVA) model with ‘sequence’, ‘period’ and ‘treatment’ as fixed effects, ‘subjects nested within sequences’ as a random effect, and ‘pre-dose baseline’ as a covariate. Analyses were performed using pair-wise comparisons of the trial treatments. The saturated repeated measurements crossover (RMC) model with unstructured covariance using pair-wise comparisons of the trial treatments was used to evaluate changes from baseline in QTcN at any time point between 0.5–24 hours after dosing. […] For descriptive statistics and the exposure-response analysis, the changes from baseline in QTcN of the placebo periods were averaged prior to the derivation of the placebo corrected MCfB.
In agreement with ICH E14, all tests were performed one-sided against the threshold level of regulatory concern of 10 ms with type-I error of α=5%, which is statistically equivalent to the calculation of two-sided 90% confidence intervals for the adjusted mean estimates. […]

In data set [3] the test system is healthy volunteers. Further details: method as in PMID 19238652, PMID 15165918, PMID 15903123, PMID 11180026. The settings on record: moxifloxacin 400 mg; cited from earlier work.
Setting [4] is: moxifloxacin 400 mg, 2-4 hours after administration.

Structures are written as SMILES.

`COc1c(N2C[C@@H]3CCCN[C@@H]3C2)c(F)cc2c(=O)c(C(=O)O)cn(C3CC3)c12` [Moxifloxacin, moxifloxacin, reference compound]: in the data set with healthy volunteers [1], the “Serious AE leading to study discontinuation” value is “fatal car accident”. Further, in the data set with healthy volunteers [2] (moxifloxacin 400 mg), the “Number of volunteers with a change in QTcN more than 30 ms” value is reported as “Five” and the “Difference from placebo: ΔΔQTcN (placebo-corrected MCfB in QTcN), adjusted mean” value is reported as 12.4 (1.0) ms. The “QTcN mean change from baseline: ΔQTcN, adjusted mean (SE)” value in the data set with healthy volunteers [2] (moxifloxacin 400 mg single dose, open-label, 2-4 hours after administration, n=29) is 16.0 (1.2) ms. For the same molecule, the “Volunteers exceeding the QTcN threshold of 450 ms” value in the data set on healthy volunteers [2] (moxifloxacin 400 mg, 0.5-6 hours post-dose, two volunteers) is 6.9%. In the data set with healthy volunteers [2] (setting [4]), the “Difference from placebo: ΔΔHR, adjusted mean (SE)” value is 2.2 (0.6) bpm and the “HR mean change from baseline: ΔHR, adjusted mean (SE)” value was 2.0 (0.6) bpm. Also, the “Difference from placebo: ΔΔQTcN (placebo-corrected MCfB in QTcN), adjusted mean” value with healthy volunteers [2] (moxifloxacin 400 mg, listed as moxifloxacin) is 12.4 (10.7, 14.1) ms. Also, the “Prolongation of heart rate-corrected QT interval compared to placebo” value in the data set with healthy volunteers [3] was 6 to 15 ms.
